Assay results taken from US5602229A, “Pentapeptide antibiotics” (Gruppo Lepetit S.p.A., priority 1989, dated 1997).
Read-outs that look alike come from different tables or passages of the source.

Tests used:
[1] = test system: Strept. pyogenes C 203; assay: In vitro MIC, two-fold dilution test in microtiter; assay type: cell-based, Streptococcus pyogenes; conditions: Difco Todd-Hewitt broth, inoculum about 10^4 CFU/ml, 18-24 h at 37° C.
Protocol: (§1) Broth cultures are diluted enough so that the final inoculum is about 10^4 colony forming units/ml (CFU/ml).

[2] = test system: Streptococcus pneumoniae UC41; assay: In vitro MIC, two-fold dilution test in microtiter; assay type: cell-based; conditions: Difco Todd-Hewitt broth, inoculum about 10^4 CFU/ml, 18-24 h at 37° C.
Protocol: as §1

[3] = test system: Staphylococcus aureus Tour; assay: In vitro MIC, two-fold dilution test in microtiter; assay type: cell-based; conditions: Oxoid ISO-SENSITEST broth, inoculum about 10^4 CFU/ml, 18-24 h at 37° C.
Protocol: as §1

[4] = Acid-base titration (pKa); assay type: physicochemical
Protocol: Acid-base titrations were carried out under the following conditions: the sample was dissolved in a mixture methyl cellosolve/H2 O 4/1, then an excess of 0.01M HCl in the same solvent mixture was added and the resulting solution was titrated with 0.01N NaOH.

[5] = test system: Streptococcus faecalis ATCC 7080; assay: In vitro MIC, two-fold dilution test in microtiter; assay type: cell-based; conditions: Oxoid ISO-SENSITEST broth, inoculum about 10^4 CFU/ml, 18-24 h at 37° C.
Protocol: as §1

[6] = test system: Staphylococcus epidermidis ATCC 12228; assay: In vitro MIC, two-fold dilution test in microtiter; assay type: cell-based; conditions: Oxoid ISO-SENSITEST broth, inoculum about 10^4 CFU/ml, 18-24 h at 37° C.
Protocol: as §1

[7] = test system: Streptococcus mitis 796; assay: In vitro MIC, two-fold dilution test in microtiter; assay type: cell-based; conditions: inoculum about 10^4 CFU/ml, 18-24 h at 37° C.
Protocol: as §1

[8] = methyl cellosolve/H2O 4/1, excess 0.01M HCl, titrated with 0.01N NaOH

Substance | MIC, STREPT. PYOGENES C 203 [1] [micrograms/ml] | MIC, STREPT. PNEUMONIAE UC 41 [2] [micrograms/ml] | MIC, STAPH. AUREUS TOUR [3] [micrograms/ml] | pKa1 [4] | pKa2 [4] | pKa3 [4] | pKa1 [4, 8] | pKa2 [4, 8] | pKa3 [4, 8] | MIC, STREPT. FAECALIS ATCC 7080 [5] [micrograms/ml] | MIC, STAPH. EPIDERMIDIS ATCC 12228 [6] [micrograms/ml] | MIC, STREPT. MITIS 796 [7] [micrograms/ml]
reductive cleavage product of antibiotic A/40926 [Example 9] | 2 | 16 | 16 | 4.5 | 5.9 | 7.5 |  |  |  |  |  | 
reductive cleavage product of antibiotic L 17046 [Example 4] |  |  |  |  |  |  | 4.6 | 5.8 | 7.5 |  |  | 
reductive cleavage product of antibiotic L 17054 [Example 3] |  |  |  |  |  |  | 4.7 |  |  |  |  | 
reductive cleavage product of antibiotic L 17392 [Example 5] | 8 | 16 | 4 | 4.5 | 5.5 |  |  |  |  | 16 | 2 | 16
reductive cleavage product of ristocetin [Example 8] |  |  |  |  |  |  |  | 6.2 | 7.8 |  |  | 
reductive cleavage product of teicoplanin A2 component 2 [Example 2] | 1 | 4 | 8 | 4.1 | 5.9 | 7.3 |  |  |  | 4 | 2 | 4
reductive cleavage product of vancomycin [Example 6] | 8 |  | 16 |  |  |  |  |  |  | 16 | 32 | 
